Common to all, as to assay: NCI-60 cell line screen, 48 h
Test [1] deals with HCT-116 colon.
Test [2] relates to UO-31 renal.
The test system of test [3] is EKVX NSCLC.
Test [4] concerns MDA-MB-435.
Test [5] deals with SN12C renal.
Test [6] deals with NCI-H522 lung.
The test system of test [7] is UACC-62 melanoma.
Test [8] has as its system HS 578T breast.
In test [9] the test system is SF-268 CNS.
The subject of test [10] is MOLT-4 leukemia.

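1) Cells in 96-well plates. 2) Compound, 48 h, 5 concentrations. 3) Linear interpolation between surrounding doses. 4) Unreached endpoint = highest concentration. TGI: total growth inhibition.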 Some results are limits rather than exact numbers.

`COc1ccc(CCc2ccc(O)c(C(=O)O)c2)cc1OC`: the TGI in test [1], in test [2], in test [3], in test [4], in [5] and in [6] was more than 100 µM throughout. The TGI in test [7], in [8], in test [9] and in test [10] was more than 100 µM each time.

On to `O=C(/C=C\Nc1ccccc1O)C(Cl)(Cl)Cl`, for which the TGI in test [1] is more than 100 µM; in test [2], 76.5 µM; in test [3] it was more than 100 µM; in test [4] it was 43.8 µM; in [5], more than 100 µM; in test [6], 65 µM. The TGI in test [7], in [8], in test [9] and in test [10] was more than 100 µM throughout.

For the molecule `COc1ccc(C2SCC(=O)N2NC(=O)C(C)Oc2ccccc2Cl)cc1` (stereo not given), the TGI in test [1], in test [2], in [3], in test [4], in test [5] and in [6] was more than 100 µM each time. In addition, the TGI was more than 100 µM in [7], more than 100 µM in [8], more than 100 µM in [9] and 79.5 µM in test [10].

As to `COC(=O)c1ccc(CCc2cc(O)c(Br)cc2O)cc1`, the TGI was 14.3 µM in [1]; 18.1 µM in test [2]; 31.3 µM in test [3]; 22.6 µM in test [4]; 28.3 µM in [5]; 12.3 µM in [6]. Moreover, the TGI in [7] was 27.1 µM; in test [8], more than 100 µM; in test [9], 34.1 µM; in [10] it was 6.65 µM.

As for `N=c1oc2ccc(Cl)cc2cc1C(=O)NCc1ccccc1`, the TGI in test [1], in test [2], in [3], in test [4], in [5] and in test [6] was more than 100 µM in each case. In addition, the TGI was more than 100 µM in test [7], more than 80.5 µM in test [8], more than 100 µM in test [9] and more than 56.7 µM in test [10].

`Cc1ccc2cccc3c2c1CC1(C3=O)S(=O)(=O)OCCOS1(=O)=O`: the TGI in [1], in [2], in test [3], in [4], in test [5] and in [6] was more than 100 µM throughout. Besides, the TGI in test [7], in [8], in test [9] and in test [10] was more than 100 µM each time.

As to `CC[C@@]1(O)C(=O)OCc2c1cc1n(c2=O)Cc2c-1nc1ccccc1c2/C=N\NC(=O)C(N)Cc1cnc[nH]1` (stereo not given in full), the TGI is more than 41.4 µM in test [1]; 2.33 µM in test [2]; more than 100 µM in test [3]; more than 85.9 µM in [4]; more than 73 µM in test [5]; more than 19.7 µM in test [6]. For the same molecule, the TGI in test [7] was 1.22 µM; in test [8], more than 100 µM; in test [9] it was more than 25.8 µM; in test [10] it was 0.243 µM.

Take `Cc1ccc(/C=N/NC2=NCCN2)s1`: the TGI in test [1], in test [2], in [3], in [4], in test [5] and in test [6] was more than 100 µM throughout. Further, the TGI in test [7], in test [8], in test [9] and in [10] was more than 100 µM in each case.

As for `COc1ccc(C(C#N)NCCCCCCNC(C#N)c2ccc(OC)cc2)cc1` (stereo not given), the TGI in test [1], in test [2], in test [3], in [4], in test [5] and in test [6] was more than 100 µM in each case. The TGI in test [7], in [8], in [9] and in test [10] was more than 100 µM throughout.

For the molecule `O=c1c(-c2ccccc2Cl)coc2cc(F)ccc12`, the TGI in test [1] is more than 100 µM; in test [2], more than 100 µM; in test [3], more than 100 µM; in test [4], 4.31 µM; in [5] it was more than 100 µM; in [6], 36.5 µM. The TGI is 73.6 µM in test [7], more than 100 µM in [8], more than 100 µM in test [9] and more than 100 µM in test [10].

With `Cc1ccc(Nc2nc(=O)[nH]c(=O)[nH]2)cc1N=[N+]=[N-]`, the TGI in test [1], in test [2], in [3], in test [4], in [5] and in test [6] was more than 100 µM throughout. Also, the TGI in test [7], in test [8], in test [9] and in [10] was more than 100 µM throughout.

Take `COC1(OC)C2(Cl)C(Cl)=C(Cl)C1(Cl)C1COCC12` (stereo not given): the TGI in [1] was more than 100 µM; in [2], more than 100 µM; in test [3], more than 100 µM; in test [4] it was more than 69.4 µM; in test [5] it was more than 100 µM; in test [6], more than 100 µM. Moreover, the TGI in test [7], in [8], in [9] and in test [10] was more than 100 µM each time.

Consider `COc1ccccc1N=N/C(=N/NC(=O)c1ccc(C)cc1)c1ccc(N(CCC#N)CCC#N)cc1OC`, for which the TGI in test [1] is 59.9 µM; in test [2], more than 100 µM; in test [3], 69.2 µM; in [4], more than 100 µM; in test [5] it was 72.4 µM; in test [6] it was 79 µM. Moreover, the TGI is more than 100 µM in test [7], more than 100 µM in [8], 77.8 µM in test [9] and 49.6 µM in test [10].

Values taken from PubChem BioAssay (NCI).
